Where a name gives a salt, the structure may show the parent alone. Read-outs that look alike come from different tables or passages of the source.
Assays:
[1] = target: T1, NMDA associated strychnine-insensitive glycine modulatory site (Rattus norvegicus, UniProt P35439); test: Enhancement of [^3 H]TCP Binding; assay type: biochemical, rat (Sprague Dawley); conditions: for Emax: read-out: Enhancement of [^3 H]TCP Binding, % maximal glycine response
T1 construct: prepared from cortical tissue obtained from male Sprague Dawley rats; from tissue; host or cells: male Sprague Dawley rat cortex, crude synaptosomal homogenate

[2] = target: T2, glycine binding site associated with the N-methyl-D-aspartate (NMDA) receptor complex (Rattus norvegicus, UniProt P35439); test: Displacement of [^3 H]Glycine Binding; parameters: species or system rat (Wistar)
T2 construct: Cortices of male Wistar rats are dissected over ice; from tissue; host or cells: male Wistar rat cortex, Triton-treated membranes
Description: Aliquots of 20 μl to the assay tube will give a final concentration of 10^-3 M.
4. […] Aliquots of 50 μl are added to yield a final assay concentration of 10 nM.
6. […] A stock solution of Triton-X 100, 10% can be prepared and stored in the refrigerator. Dilute 1.0 ml of Triton-X 100 to 10.0 ml with distilled water. On the day of the assay, the tissue homogenate (1:15 dilution) is preincubated with an aliquot of the 10% solution to give a final concentration of 0.04% (v/v).
Three cortices are pooled for one preparation.
1. Prepare assay tubes in triplicate.
2. Following the addition of the tissue, the tubes are incubated for 20 minutes in an ice-bath at 0°-4° C.
3. […] IC50 values for the competing compound are calculated by log-probit analysis of the data.

serotonin (5HT) uptake = target: T3, serotonin (5HT) uptake (Rattus norvegicus, UniProt P31652); test: ^3 H-Serotonin Uptake in Rat Whole Brain Synaptosomes; assay type: biochemical, rat (Wistar)
T3 construct: from tissue; host or cells: male Wistar rat whole brain minus cerebella, crude synaptosomes (S1)
Description: A. Animals: Male CR Wistar rats (100-125 g).
3. […] This is used to dilute the specific activity of radiolabeled 5HT.
The dilution factor is 0.8.
5. For most assays, a 1 mM solution of the test compound is made up in suitable solvent and serially diluted such that the final concentration in the assay ranges from 2×10^-8 to 2×10^-5 M. Seven concentrations are used for each assay.
Male Wistar rats are decapitated and the brain rapidly removed. […] Homogenization should be done with 4-5 up and down strokes at medium speeds to minimize synaptosome lysis. […] The supernatant (S1) is decanted and is used for uptake experiments.
Tubes are incubated at 37° C. under a 95% O2 /5% CO2 atmosphere for 5 minutes. For each assay, 3 tubes are incubated with 20 μl of vehicle at 0° C. in an ice bath. After incubation all tubes are immediately centrifuged at 4000 g for 10 minutes. The supernatant fluid is aspirated and the pellets dissolved by adding 1 ml of solubilizer (Triton X-100+50% EtOH, 1:4 v/v). The tubes are vigorously vortexed, decanted into scintillation vials, and counted in 10 ml of Liquiscint scintillation counting cocktail. Active uptake is the difference between cpm at 37° C. and 0° C. The percent inhibition at each drug concentration is the mean of three determinations. IC50 values are derived from log-probit analysis.

5HT3 Receptor = target: T4, 5HT3 Receptor (Homo sapiens, UniProt P46098); test: 5HT3 Receptor Binding Assay
T4 sequence (P46098 24-478): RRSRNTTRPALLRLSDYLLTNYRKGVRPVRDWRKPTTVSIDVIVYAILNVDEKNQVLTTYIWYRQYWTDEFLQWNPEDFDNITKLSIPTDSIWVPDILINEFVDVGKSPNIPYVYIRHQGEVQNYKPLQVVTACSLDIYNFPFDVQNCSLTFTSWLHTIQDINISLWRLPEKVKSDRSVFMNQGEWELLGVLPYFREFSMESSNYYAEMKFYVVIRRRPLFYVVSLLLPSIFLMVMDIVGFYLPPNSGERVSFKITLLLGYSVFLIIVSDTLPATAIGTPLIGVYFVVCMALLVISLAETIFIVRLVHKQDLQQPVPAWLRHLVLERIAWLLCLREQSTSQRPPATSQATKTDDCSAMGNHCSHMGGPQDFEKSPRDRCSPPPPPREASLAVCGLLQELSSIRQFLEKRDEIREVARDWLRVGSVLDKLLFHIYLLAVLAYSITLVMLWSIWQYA

[3] = target: T5, ^3 H-Norepinephrine reuptake (Rattus norvegicus, UniProt Q63380); test: Inhibition of Biogenic Amine Reuptake, ^3 H-Norepinephrine (WB); assay type: biochemical
T5 construct: from tissue; host or cells: whole brain (WB), rat inferred

^3 H-Dopamine reuptake = target: T6, ^3 H-Dopamine reuptake (Rattus norvegicus, UniProt P23977); test: Inhibition of Biogenic Amine Reuptake, ^3 H-Dopamine (Str); assay type: biochemical; conditions: str. = striatum
T6 construct: str. = striatum; from tissue; host or cells: striatum, rat inferred
T6 sequence (P23977 whole entry): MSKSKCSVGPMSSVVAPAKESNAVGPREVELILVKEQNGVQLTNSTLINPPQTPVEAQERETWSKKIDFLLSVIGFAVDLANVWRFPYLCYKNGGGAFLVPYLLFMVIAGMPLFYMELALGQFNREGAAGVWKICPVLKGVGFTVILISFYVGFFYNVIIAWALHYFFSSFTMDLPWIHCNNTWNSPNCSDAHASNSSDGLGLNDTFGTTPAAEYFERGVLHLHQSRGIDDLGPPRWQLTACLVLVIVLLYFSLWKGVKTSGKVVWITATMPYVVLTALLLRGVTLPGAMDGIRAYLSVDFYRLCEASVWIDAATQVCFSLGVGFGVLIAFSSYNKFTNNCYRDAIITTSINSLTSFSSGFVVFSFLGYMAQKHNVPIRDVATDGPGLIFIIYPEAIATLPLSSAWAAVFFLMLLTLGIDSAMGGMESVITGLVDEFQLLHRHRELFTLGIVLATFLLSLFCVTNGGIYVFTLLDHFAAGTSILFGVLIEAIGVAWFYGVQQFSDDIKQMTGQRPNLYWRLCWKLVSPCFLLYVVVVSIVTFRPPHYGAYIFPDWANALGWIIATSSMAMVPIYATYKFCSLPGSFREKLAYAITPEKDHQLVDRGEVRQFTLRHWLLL

T3 sequence (P31652 whole entry): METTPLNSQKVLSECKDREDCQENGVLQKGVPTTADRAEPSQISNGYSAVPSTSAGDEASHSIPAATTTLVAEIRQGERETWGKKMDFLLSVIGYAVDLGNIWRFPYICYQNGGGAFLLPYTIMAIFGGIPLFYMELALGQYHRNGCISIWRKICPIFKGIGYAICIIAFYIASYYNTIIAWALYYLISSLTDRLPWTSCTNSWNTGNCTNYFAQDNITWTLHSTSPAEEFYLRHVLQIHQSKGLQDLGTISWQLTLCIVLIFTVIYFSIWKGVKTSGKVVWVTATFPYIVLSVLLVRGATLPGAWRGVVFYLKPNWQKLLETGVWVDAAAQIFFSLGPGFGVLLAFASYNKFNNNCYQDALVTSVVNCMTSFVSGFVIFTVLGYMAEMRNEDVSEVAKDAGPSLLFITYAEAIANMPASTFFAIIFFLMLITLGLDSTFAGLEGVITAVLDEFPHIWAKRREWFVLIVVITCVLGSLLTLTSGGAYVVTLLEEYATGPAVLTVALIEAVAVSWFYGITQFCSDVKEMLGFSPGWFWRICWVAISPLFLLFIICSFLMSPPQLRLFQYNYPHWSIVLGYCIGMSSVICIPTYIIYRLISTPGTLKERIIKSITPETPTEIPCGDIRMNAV
T5 sequence (Q63380 1-617): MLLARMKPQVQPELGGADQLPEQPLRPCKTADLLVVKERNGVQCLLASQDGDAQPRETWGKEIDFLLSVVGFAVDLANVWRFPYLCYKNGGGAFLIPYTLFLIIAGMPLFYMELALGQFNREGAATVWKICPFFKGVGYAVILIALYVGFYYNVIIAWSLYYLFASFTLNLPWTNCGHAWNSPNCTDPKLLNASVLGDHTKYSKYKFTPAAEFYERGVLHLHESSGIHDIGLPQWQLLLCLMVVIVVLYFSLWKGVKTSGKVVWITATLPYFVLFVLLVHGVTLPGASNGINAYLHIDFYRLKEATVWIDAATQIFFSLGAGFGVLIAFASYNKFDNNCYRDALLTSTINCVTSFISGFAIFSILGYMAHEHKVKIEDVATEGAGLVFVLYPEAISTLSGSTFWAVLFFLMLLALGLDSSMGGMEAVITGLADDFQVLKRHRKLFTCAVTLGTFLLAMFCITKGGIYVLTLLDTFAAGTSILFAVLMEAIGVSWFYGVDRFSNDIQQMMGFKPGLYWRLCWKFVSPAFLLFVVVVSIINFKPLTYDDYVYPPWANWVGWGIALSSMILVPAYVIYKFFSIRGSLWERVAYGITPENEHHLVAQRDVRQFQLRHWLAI

## NCC(=O)O [Glycine, glycine, reference compound]
[1]
  Emax: 100%

## NCC(=O)Nc1csc2ncccc12 [2-Amino-N-(thieno[2,3-b]pyridin-3-yl)acetamide]
[1]; rat cortical homogenate, 2.5 nM [^3 H]TCP, 10^-7 M L-glutamic acid
  EC50: 14.4 µM
[1]
  Emax: 39%
[2]
  IC50: 21.8 µM

## CCCN(c1ccncc1)c1csc2ncccc12 [3-(Propyl-4-pyridinylamino)-thieno[2,3-b]-pyridine hydrochloride]
Serotonin (5HT) uptake
  IC50: 0.071 µM
5HT3 Receptor
  IC50: 4.6 µM
[3]
  IC50: 0.71 µM

## CN(C)CCCN1c2ccccc2CCc2ccc(Cl)cc21 [Clomipramine, reference compound]
5HT3 Receptor
  IC50: > 10 µM
^3 H-Dopamine reuptake
  IC50: 31.5 µM

## N[C@@H]1CONC1=O [D-cycloserine, reference compound]
[1]
  Emax: 80%

## CCCN(c1ccncc1)c1csc2cnccc12 [3-(Propyl-4-pyridinylamino)thieno[2,3-c]pyridine]
Serotonin (5HT) uptake; […]
  IC50: 0.54 µM

From patent US5252581A, “Substituted aminothienopyridines, pharmaceutical composition and use” (Hoechst-Roussel Pharmaceuticals Inc., priority 1992, dated 1993)
